Key:
[1] = Acute toxicity in ip dosed CFW mouse administered daily for 5 days; format: organism-based; conditions: in vivo
Trypanosoma cruzi [2] = assay: Antiprotozoal activity against Trypanosoma cruzi BH infected in CFW mouse assessed as increase in host mean survival time at 50 mg/kg, po administered daily for 5 days starting 4 hrs post-parasite infection (reference value: 14 +/- 1 days); format: functional
Trypanosoma cruzi [3] = assay: Antiprotozoal activity against Trypanosoma cruzi BH infected in CFW mouse assessed as increase in host mean survival time at 10 mg/kg, ip administered daily for 5 days starting 4 hrs post-parasite infection (reference value: 14 +/- 1 days); format: functional; conditions: route intraperitoneal
Trypanosoma cruzi [4] = assay: Antiprotozoal activity against Trypanosoma cruzi BH infected in CFW mouse assessed as increase in host mean survival time at 100 mg/kg, po administered daily for 5 days starting 4 hrs post-parasite infection (reference value: 14 +/- 1 days); format: functional
Trypanosoma cruzi [5] = assay: Antiprotozoal activity against Trypanosoma cruzi BH infected in CFW mouse assessed as increase in host mean survival time at 25 mg/kg, po administered daily for 5 days starting 4 hrs post-parasite infection (reference value: 14 +/- 1 days); format: functional
Trypanosoma cruzi [6] = assay: Antiprotozoal activity against Trypanosoma cruzi BH infected in CFW mouse assessed as increase in host mean survival time at 100 mg/kg, ip administered daily for 5 days starting 4 hrs post-parasite infection (reference value: 14 +/- 1 days); format: functional; conditions: route intraperitoneal
Trypanosoma cruzi [7] = assay: Antiprotozoal activity against Trypanosoma cruzi BH infected in CFW mouse assessed as increase in host mean survival time at 25 mg/kg, ip administered daily for 5 days starting 4 hrs post-parasite infection (reference value: 14 +/- 1 days); format: functional; conditions: route intraperitoneal
Trypanosoma cruzi [8] = assay: Antiprotozoal activity against Trypanosoma cruzi BH infected in CFW mouse assessed as increase in host mean survival time at 200 mg/kg, po administered daily for 5 days starting 4 hrs post-parasite infection (reference value: 14 +/- 1 days); format: functional
Trypanosoma cruzi [9] = assay: Antiprotozoal activity against Trypanosoma cruzi BH infected in CFW mouse assessed as increase in host mean survival time at 5 mg/kg, ip administered daily for 5 days starting 4 hrs post-parasite infection (reference value: 14 +/- 1 days); format: functional; conditions: route intraperitoneal
Trypanosoma cruzi [10] = assay: Antiprotozoal activity against Trypanosoma cruzi BH infected in CFW mouse assessed as increase in host mean survival time at 50 mg/kg, ip administered daily for 5 days starting 4 hrs post-parasite infection (reference value: 14 +/- 1 days); format: functional; conditions: route intraperitoneal
[11] = Acute toxicity in po dosed CFW mouse administered daily for 5 days; format: organism-based; conditions: in vivo
Trypanosoma cruzi [12] = assay: Antiprotozoal activity against Trypanosoma cruzi BH infected in CFW mouse assessed as increase in host mean survival time at 5 mg/kg, po administered daily for 5 days starting 4 hrs post-parasite infection (reference value: 14 +/- 1 days); format: functional
Trypanosoma cruzi [13] = assay: Antiprotozoal activity against Trypanosoma cruzi BH infected in CFW mouse assessed as increase in host mean survival time at 10 mg/kg, po administered daily for 5 days starting 4 hrs post-parasite infection (reference value: 14 +/- 1 days); format: functional
Trypanosoma cruzi [14] = assay: Antiprotozoal activity against Trypanosoma cruzi Peru infected in CFW mouse assessed as increase in host mean survival time at 10 mg/kg, po administered daily for 10 days starting 4 hrs post-parasite infection; format: functional
Trypanosoma cruzi [15] = assay: Antiprotozoal activity against Trypanosoma cruzi Peru infected in CFW mouse assessed as increase in host mean survival time at 25 mg/kg, po administered daily for 10 days starting 4 hrs post-parasite infection; format: functional
Trypanosoma cruzi [16] = assay: Antiprotozoal activity against Trypanosoma cruzi Y infected in CFW mouse assessed as increase in host mean survival time at 25 mg/kg, po administered daily for 10 days starting 4 hrs post-parasite infection; format: functional
Trypanosoma cruzi [17] = assay: Antiprotozoal activity against Trypanosoma cruzi Peru infected in CFW mouse assessed as increase in host mean survival time at 5 mg/kg, po administered daily for 10 days starting 4 hrs post-parasite infection; format: functional
Trypanosoma cruzi [18] = assay: Antiprotozoal activity against high myocardial tissue infiltration leishmanial form of Trypanosoma cruzi BHC/10 infected in CFW mouse assessed as increase in host mean survival time at 5 mg/kg, po administered daily for 10 days starting 4 hrs post-parasite infection; format: functional
Trypanosoma cruzi [19] = assay: Antiprotozoal activity against high myocardial tissue infiltration leishmanial form of Trypanosoma cruzi BHC/10 infected in CFW mouse assessed as increase in host mean survival time at 25 mg/kg, po administered daily for 10 days starting 4 hrs post-parasite infection; format: functional
Trypanosoma cruzi [20] = assay: Antiprotozoal activity against Trypanosoma cruzi Y infected in CFW mouse assessed as increase in host mean survival time at 5 mg/kg, po administered daily for 10 days starting 4 hrs post-parasite infection; format: functional
Trypanosoma cruzi [21] = assay: Antiprotozoal activity against Trypanosoma cruzi Y infected in CFW mouse assessed as increase in host mean survival time at 10 mg/kg, po administered daily for 10 days starting 4 hrs post-parasite infection; format: functional
Trypanosoma cruzi [22] = assay: Antiprotozoal activity against high myocardial tissue infiltration leishmanial form of Trypanosoma cruzi BHC/10 infected in CFW mouse assessed as increase in host mean survival time at 10 mg/kg, po administered daily for 10 days starting 4 hrs post-parasite infection; format: functional

SMILES | LD50 at 120 h [1] | MST (Trypanosoma cruzi [2]) | MST (Trypanosoma cruzi [3]) | MST (Trypanosoma cruzi [4]) | MST (Trypanosoma cruzi [5]) | MST (Trypanosoma cruzi [6]) | MST (Trypanosoma cruzi [7]) | MST (Trypanosoma cruzi [8]) | MST (Trypanosoma cruzi [9]) | MST (Trypanosoma cruzi [10]) | LD50 at 120 h [11] | MST (Trypanosoma cruzi [12]) | MST (Trypanosoma cruzi [13]) | other results
O=[N+]([O-])c1ccc(-c2nc(/C=N/N3CCCCC3)cs2)o1 | > 800 mg/kg | 8 days | 3 days | 39 days | 0 days | 60 days | 42 days | 32 days | 0 days | 60 days | > 1600 mg/kg | – | – | –
O=[N+]([O-])c1ccc(-c2nc(/C=N/N3CCCCCC3)cs2)o1 | > 800 mg/kg | – | – | 0 days | – | 39 days | 4 days | 2 days | – | 7 days | > 1600 mg/kg | – | – | –
O=[N+]([O-])c1ccc(-c2nc(/C=N/N3CCOCC3)cs2)o1 | > 800 mg/kg | 41 days | 27 days | 60 days | 19.5 days | 60 days | 60 days | 60 days | 0 days | 60 days | > 1600 mg/kg | 0 days | 0 days | –
O=[N+]([O-])c1ccc(-c2nc(/C=N/N3CCSCC3)cs2)o1 | > 800 mg/kg | 0 days | 0 days | 4 days | – | 60 days | 18 days | 18 days | 0 days | 60 days | > 1600 mg/kg | – | – | –
O=[N+]([O-])c1ccc(-c2nc(/C=N/N3CCS(=O)(=O)CC3)cs2)o1 | > 800 mg/kg | 7 days | 5 days | 3 days | 6 days | 60 days | 18.5 days | 5 days | 0 days | 44 days | > 1600 mg/kg | – | 0 days | –
O=[N+]([O-])c1cnc(-c2nc(/C=N/N3CCCCC3)cs2)s1 | > 800 mg/kg | – | – | – | – | 0 days | – | 0 days | – | – | > 1600 mg/kg | – | – | –
O=[N+]([O-])c1cnc(-c2nc(/C=N/N3CCOCC3)cs2)s1 | > 800 mg/kg | – | – | – | – | 4 days | – | 0 days | – | – | > 1600 mg/kg | – | – | –
O=[N+]([O-])c1cnc(-c2nc(/C=N/N3CCSCC3)cs2)s1 | > 800 mg/kg | – | – | 0 days | – | 4 days | 0 days | 1 days | – | 3 days | > 1600 mg/kg | – | – | –
Cn1c([N+](=O)[O-])cnc1-c1nc(/C=N/N2CCOCC2)cs1 | > 800 mg/kg | 0 days | 0 days | – | 0 days | 60 days | 4 days | – | – | 7 days | > 1600 mg/kg | – | – | –
Cn1c([N+](=O)[O-])cnc1-c1nc(/C=N/N2CCS(=O)(=O)CC2)cs1 | > 800 mg/kg | 60 days | 60 days | 60 days | 60 days | 60 days | 60 days | 60 days | 18.5 days | 60 days | > 1600 mg/kg | 15 days | 14 days | MST (Trypanosoma cruzi [14]): 60 days; MST (Trypanosoma cruzi [15]): 60 days; MST (Trypanosoma cruzi [16]): 60 days; MST (Trypanosoma cruzi [17]): 35 days; MST (Trypanosoma cruzi [18]): 4 days; MST (Trypanosoma cruzi [19]): 22 days; MST (Trypanosoma cruzi [20]): 37 days; MST (Trypanosoma cruzi [21]): 60 days; MST (Trypanosoma cruzi [22]): 12 days
O=[N+]([O-])c1ccc(-c2nc(/C=N/N3CCOCC3)cs2)s1 | > 800 mg/kg | 0 days | 0 days | 0 days | 0 days | 60 days | 12 days | 60 days | 0 days | 27 days | > 1600 mg/kg | 0 days | 0 days | –
CC1CS(=O)(=O)CCN1/N=C/c1ccc([N+](=O)[O-])o1 (stereo unspecified) [NIFURTIMOX] | – | 60 days | 60 days | 60 days | 60 days | 60 days | 60 days | 60 days | 2.5 days | 60 days | – | 0 days | 4 days | MST (Trypanosoma cruzi [14]): 60 days; MST (Trypanosoma cruzi [15]): 60 days; MST (Trypanosoma cruzi [16]): 40 days; MST (Trypanosoma cruzi [17]): 0 days; MST (Trypanosoma cruzi [18]): 3 days; MST (Trypanosoma cruzi [19]): 6.5 days; MST (Trypanosoma cruzi [20]): 0 days; MST (Trypanosoma cruzi [21]): 8 days; MST (Trypanosoma cruzi [22]): 5.5 days
